From ChEMBL document CHEMBL4715696, “In vitro synergistic anticancer activity of the combination of T-type calcium channel blocker and chemotherapeutic agent in A549 cells” (Bioorg Med Chem Lett, 2016) come the findings set out here.

pIC50: −log10 of the molar value.

Data set [1] relates to A549. As to the kind of experiment: Induction of cell cycle arrest in human A549 cells assessed as accumulation at sub G1 phase at 10 uM after 24 hrs by flow cytometric analysis (reference value: 7.8%). The format is functional.
Data set [2] deals with A549. As to the kind of experiment: Induction of cell cycle arrest in human A549 cells assessed as accumulation at G2/M phase at 10 uM after 24 hrs by flow cytometric analysis (reference value: 21.6%). The format is functional.
Data set [3] deals with A549. The data set is described as follows: Induction of cell cycle arrest in human A549 cells assessed as accumulation at S phase at 10 uM after 48 hrs by flow cytometric analysis (reference value: 12%). The format is functional.
The subject of data set [4] is A549. As to the kind of experiment: Induction of cell cycle arrest in human A549 cells assessed as accumulation at sub G1 phase at 10 uM after 48 hrs by flow cytometric analysis (reference value: 4.9%). The format is functional.
The test system of data set [5] is A549. The data set is described as follows: Induction of cell cycle arrest in human A549 cells assessed as accumulation at S phase at 10 uM after 24 hrs by flow cytometric analysis (reference value: 17.6%). The class given is functional.
Data set [6] concerns A549. As to the kind of experiment: Induction of cell cycle arrest in human A549 cells assessed as accumulation at G2/M phase at 10 uM after 48 hrs by flow cytometric analysis (reference value: 25.4%). The format is functional.
The test system of data set [7] is A549. The data set is described as follows: Induction of cell cycle arrest in human A549 cells assessed as accumulation at G1 phase at 10 uM after 48 hrs by flow cytometric analysis (reference value: 57.8%). The class given is functional.
Data set [8] concerns A549. As to the kind of experiment: Induction of cell cycle arrest in human A549 cells assessed as accumulation at G1 phase at 10 uM after 24 hrs by flow cytometric analysis (reference value: 53.1%). The class given is functional.
In data set [9] the test system is A549. As to the kind of experiment: Cytotoxicity against human A549 cells assessed as reduction in cell viability by MTT assay. The format is functional, cell-based.
A short description of data set [10]: Metabolic stability in human plasma assessed as parent compound remaining at 10 uM measured after 2 hrs. The format is ADME, cell-free. To be noted: read-out: Stabilty.
Data set [11] can be described thus: Metabolic stability in rat plasma assessed as parent compound remaining at 10 uM measured after 2 hrs. The class given is ADME, cell-free. To be noted: read-out: Stabilty.
Data set [12] is described as follows: Protein binding in human plasma at 10 uM after 4 hrs. The format is ADME, cell-free. To be noted: read-out: PPB (converted).
Data set [13] is described as follows: Protein binding in rat plasma at 10 uM after 4 hrs. The format is ADME, cell-free. To be noted: read-out: PPB (converted).
Data set [14] concerns A549. As to the kind of experiment: Induction of cell cycle arrest in human A549 cells assessed as accumulation at G1 phase at 5 uM after 24 hrs by flow cytometric analysis (reference value: 53.1%). The class given is functional.
In data set [15] the test system is A549. As to the kind of experiment: Induction of cell cycle arrest in human A549 cells assessed as accumulation at G1 phase at 5 uM after 48 hrs by flow cytometric analysis (reference value: 57.8 to 65.5%). The format is functional.
The target in data set [16] is Voltage-dependent T-type calcium channel subunit alpha-1G (Homo sapiens, UniProt O43497). As to the kind of experiment: Inhibition of T type calcium channel Cav3.1 (unknown origin) expressed in HEK293T cells by patch clamp method relative to control. The class given is cell-based.
Sequence of Voltage-dependent T-type calcium channel subunit alpha-1G (O43497 whole entry): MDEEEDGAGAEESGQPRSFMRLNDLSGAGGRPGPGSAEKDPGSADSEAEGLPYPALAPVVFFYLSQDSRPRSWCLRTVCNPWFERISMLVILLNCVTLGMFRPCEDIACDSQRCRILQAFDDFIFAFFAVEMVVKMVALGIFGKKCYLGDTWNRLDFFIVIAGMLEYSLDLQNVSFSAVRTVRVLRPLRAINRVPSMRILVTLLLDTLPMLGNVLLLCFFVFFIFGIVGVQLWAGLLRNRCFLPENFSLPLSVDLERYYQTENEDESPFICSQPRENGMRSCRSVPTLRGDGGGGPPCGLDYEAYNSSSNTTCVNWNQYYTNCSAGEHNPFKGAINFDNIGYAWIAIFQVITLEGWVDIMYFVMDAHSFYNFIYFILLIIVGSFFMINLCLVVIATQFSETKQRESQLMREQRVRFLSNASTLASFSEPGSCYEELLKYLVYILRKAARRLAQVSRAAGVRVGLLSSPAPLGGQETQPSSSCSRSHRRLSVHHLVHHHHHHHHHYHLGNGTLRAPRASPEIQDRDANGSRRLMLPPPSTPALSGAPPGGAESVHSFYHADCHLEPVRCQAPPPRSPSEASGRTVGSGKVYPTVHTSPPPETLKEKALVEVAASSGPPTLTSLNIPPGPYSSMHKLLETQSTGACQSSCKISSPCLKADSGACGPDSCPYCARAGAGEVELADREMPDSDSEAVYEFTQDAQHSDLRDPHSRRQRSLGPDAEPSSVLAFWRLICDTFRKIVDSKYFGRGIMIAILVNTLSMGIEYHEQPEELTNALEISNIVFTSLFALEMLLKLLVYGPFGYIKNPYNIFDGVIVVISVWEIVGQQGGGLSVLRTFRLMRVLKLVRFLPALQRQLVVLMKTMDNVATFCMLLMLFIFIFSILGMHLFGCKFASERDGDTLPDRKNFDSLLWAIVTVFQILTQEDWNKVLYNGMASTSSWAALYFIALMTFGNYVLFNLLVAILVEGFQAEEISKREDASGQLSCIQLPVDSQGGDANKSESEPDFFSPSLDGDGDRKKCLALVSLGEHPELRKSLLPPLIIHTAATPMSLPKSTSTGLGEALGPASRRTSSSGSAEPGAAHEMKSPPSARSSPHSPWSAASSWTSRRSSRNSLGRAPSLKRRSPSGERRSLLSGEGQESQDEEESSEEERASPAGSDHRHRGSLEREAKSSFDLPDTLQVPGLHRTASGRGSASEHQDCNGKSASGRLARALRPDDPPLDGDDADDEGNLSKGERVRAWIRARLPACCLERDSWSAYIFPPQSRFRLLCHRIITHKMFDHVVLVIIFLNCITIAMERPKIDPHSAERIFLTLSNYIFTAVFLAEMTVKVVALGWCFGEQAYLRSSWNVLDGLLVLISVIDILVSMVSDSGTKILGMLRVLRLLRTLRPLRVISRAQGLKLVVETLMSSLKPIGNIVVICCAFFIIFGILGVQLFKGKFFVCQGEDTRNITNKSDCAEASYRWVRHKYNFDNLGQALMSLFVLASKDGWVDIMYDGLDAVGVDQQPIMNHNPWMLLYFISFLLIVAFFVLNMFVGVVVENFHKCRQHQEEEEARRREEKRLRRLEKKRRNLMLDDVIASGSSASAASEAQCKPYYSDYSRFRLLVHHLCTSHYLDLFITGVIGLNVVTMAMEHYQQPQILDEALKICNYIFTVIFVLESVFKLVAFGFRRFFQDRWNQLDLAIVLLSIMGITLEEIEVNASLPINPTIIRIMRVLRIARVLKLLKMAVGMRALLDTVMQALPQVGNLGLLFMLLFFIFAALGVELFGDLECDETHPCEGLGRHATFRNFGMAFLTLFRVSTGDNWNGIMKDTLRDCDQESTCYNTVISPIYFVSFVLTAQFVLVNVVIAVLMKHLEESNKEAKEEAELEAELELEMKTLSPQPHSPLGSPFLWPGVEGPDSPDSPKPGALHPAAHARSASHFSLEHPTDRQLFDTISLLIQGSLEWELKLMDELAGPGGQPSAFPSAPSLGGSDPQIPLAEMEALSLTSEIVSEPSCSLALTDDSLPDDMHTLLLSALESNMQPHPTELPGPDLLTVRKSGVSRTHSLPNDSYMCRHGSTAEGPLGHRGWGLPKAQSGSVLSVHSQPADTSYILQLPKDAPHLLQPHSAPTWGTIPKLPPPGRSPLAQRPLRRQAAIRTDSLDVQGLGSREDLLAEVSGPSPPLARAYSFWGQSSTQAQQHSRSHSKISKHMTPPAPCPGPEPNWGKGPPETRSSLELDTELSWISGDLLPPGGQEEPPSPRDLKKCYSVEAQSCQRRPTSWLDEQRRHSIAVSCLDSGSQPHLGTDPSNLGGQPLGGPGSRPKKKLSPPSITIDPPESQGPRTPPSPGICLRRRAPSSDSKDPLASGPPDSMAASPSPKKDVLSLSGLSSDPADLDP
Data set [17] has as its system A549. The data set is described as follows: Induction of cell cycle arrest in human A549 cells assessed as accumulation at G2/M phase at 5 uM after 24 hrs by flow cytometric analysis (reference value: 21.6%). The format is functional.
Data set [18] concerns A549. As to the kind of experiment: Induction of cell cycle arrest in human A549 cells assessed as accumulation at sub G1 phase at 5 uM after 48 hrs by flow cytometric analysis (reference value: 1.9 to 4.9%). The format is functional.
Data set [19] concerns A549. The data set is described as follows: Induction of cell cycle arrest in human A549 cells assessed as accumulation at G2/M phase at 5 uM after 48 hrs by flow cytometric analysis (reference value: 22.1 to 25.4 %). The class given is functional.
Data set [20] relates to A549. The data set is described as follows: Induction of cell cycle arrest in human A549 cells assessed as accumulation at S phase at 5 uM after 24 hrs by flow cytometric analysis (reference value: 17.6%). The class given is functional.
Data set [21] concerns A549. The data set is described as follows: Induction of cell cycle arrest in human A549 cells assessed as accumulation at sub G1 phase at 5 uM after 24 hrs by flow cytometric analysis (reference value: 7.8%). The format is functional.
Data set [22] deals with A549. As to the kind of experiment: Induction of cell cycle arrest in human A549 cells assessed as accumulation at S phase at 5 uM after 48 hrs by flow cytometric analysis (reference value: 10.4 to 12%). The class given is functional.

With `COCC(=O)O[C@]1(CCN(C)CCCc2nc3ccccc3[nH]2)CCc2cc(F)ccc2[C@@H]1C(C)C` [MIBEFRADIL], the Activity in the data set on A549 [1] is 9.6%; in the data set with A549 [2], 13.4%; in the data set with A549 [3] it was 12%; in the data set on A549 [4], 10%; in the data set on A549 [5], 10.9%; in the data set on A549 [6], 11.2%. The Activity amounted to 66.8% with A549 [7] and 66.1% in the data set with A549 [8]. Moreover, in the data set on A549 [9], the pIC50 is 4.50.

For `CCN(CC)CCOC(=O)c1ccc(N)cc1` [PROCAINE], the remaining at 2 h, 10 µM was less than 5% in data set [10] and greater than 50% in data set [11].

`CC(=O)CC(c1ccccc1)c1c(O)c2ccccc2oc1=O` (stereo not drawn) [WARFARIN]: the values for the fraction unbound at 4 h, 10 µM in data set [12] and in data set [13] were 0.022 and 0.017, respectively.

As for `CN(C)CCCCCN(C)C1=Nc2ccccc2C(CC(=O)NCc2ccccc2)N1c1ccc(-c2ccccc2)cc1.Cl.Cl` (stereo not drawn), the Activity with A549 [14] was found to be 33.6%; in the data set with A549 [15] it was 1.2%; with A549 [17], 2.2%; in the data set on A549 [18], 98.1%; in the data set with A549 [19], 0.1%; with A549 [20] it was 8.8%. Besides, the Activity with A549 [21] was determined as 55.3%; in the data set with A549 [22], 0.6%. The pIC50 in [16] was 6.29; in the data set with A549 [9], 5.33.
